Test results taken from ChEMBL document CHEMBL1201862, “PubChem BioAssay data set” (2004).
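A five-concentration, 48-hour dose response in 96-well plates underlies each endpoint, interpolated linearly between surrounding concentrations. Here, GI50 denotes the concentration required for 50% inhibition of growth.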 Calls of active or inactive are those of the source. No stated cut-off is given here; in the data, active = GI50 up to about 1.1 µM and inactive = higher.

Legend:
Assay in all cases: DTP human tumour cell line panel, 48 h
[1] = test system: LOX IMVI
[2] = test system: OVCAR-4
[3] = test system: UACC-257
[4] = test system: SK-MEL-5
[5] = test system: COLO 205
[6] = test system: SF-295
[7] = test system: CAKI-1
[8] = test system: SN12C
[9] = test system: SNB-19
[10] = test system: SF-268
[11] = test system: MDA-MB-435
[12] = test system: Hs-578T
[13] = test system: A549
[14] = test system: NCI-H460
[15] = test system: BT-549
[16] = test system: HT-29
[17] = test system: K562
[18] = test system: MOLT-4
[19] = test system: UO-31
[20] = test system: ACHN
[21] = test system: A498
[22] = test system: DU-145
[23] = test system: Malme-3M
[24] = test system: MDA-MB-231
[25] = test system: 786-0
[26] = test system: HL-60
[27] = test system: SNB-75
[28] = test system: HOP-62
[29] = test system: MCF7
[30] = test system: RPMI-8226
[31] = test system: KM12
[32] = test system: SK-MEL-28
[33] = test system: TK-10
[34] = test system: NCI-H226
[35] = test system: NCI-H23
[36] = test system: U-251
[37] = test system: SW-620
[38] = test system: NCI/ADR-RES
[39] = test system: IGROV-1
[40] = test system: SF-539
[41] = test system: HCT-15
[42] = test system: HCC 2998
[43] = test system: CCRF-CEM
[44] = test system: RXF 393
[45] = test system: MDA-N
[46] = test system: EKVX
[47] = test system: SR
[48] = test system: OVCAR-3
[49] = test system: OVCAR-8
[50] = test system: HCT-116
[51] = test system: PC-3
[52] = test system: OVCAR-5
[53] = test system: HOP-92
[54] = test system: NCI-H522
[55] = test system: UACC-62
[56] = test system: SK-MEL-2
[57] = test system: M14
[58] = test system: T47D
[59] = test system: SK-OV-3

With `CN(C)c1ccc(C2=C([O-])c3cc(-[n+]4ccccc4)ccc3C2=O)cc1` the GI50 [1] was > 100 µM (inactive), the GI50 [2] was > 100 µM (inactive) and the GI50 [3] was > 100 µM (inactive). The GI50 [4] was > 100 µM (inactive), the GI50 [5] was > 100 µM (inactive) and the GI50 [6] was > 100 µM (inactive). For the same compound, the GI50 [7] was > 100 µM (inactive), the GI50 [8] was > 100 µM (inactive) and the GI50 [9] was > 100 µM (inactive). The GI50 [10] was > 100 µM (inactive), the GI50 [11] was > 100 µM (inactive) and the GI50 [12] was > 100 µM (inactive). The GI50 [13] was > 100 µM (inactive), the GI50 [14] was > 100 µM (inactive) and the GI50 [15] was > 100 µM (inactive). The GI50 [16] was > 100 µM (inactive), the GI50 [17] was > 100 µM (inactive) and the GI50 [18] was > 100 µM (inactive). The GI50 [19] was > 100 µM (inactive), the GI50 [20] was > 100 µM (inactive) and the GI50 [21] was > 100 µM (inactive). The GI50 [22] was > 100 µM (inactive), the GI50 [23] was > 100 µM (inactive) and the GI50 [24] was > 100 µM (inactive). The GI50 [25] was > 100 µM (inactive), the GI50 [26] was > 100 µM (inactive) and the GI50 [27] was > 100 µM (inactive). The GI50 [28] was > 100 µM (inactive), the GI50 [29] was > 100 µM (inactive) and the GI50 [30] was > 100 µM (inactive). For the same compound, the GI50 [31] was > 100 µM (inactive), the GI50 [32] was > 100 µM (inactive) and the GI50 [33] was > 100 µM (inactive). For the same compound, the GI50 [34] was > 100 µM (inactive), the GI50 [35] was > 100 µM (inactive) and the GI50 [36] was > 100 µM (inactive). The GI50 [37] was > 100 µM (inactive), the GI50 [38] was > 100 µM (inactive) and the GI50 [39] was > 100 µM (inactive). For the same compound, the GI50 [40] was > 100 µM (inactive), the GI50 [41] was > 100 µM and the GI50 [42] was > 100 µM (inactive). The GI50 [43] was > 100 µM (inactive), the GI50 [44] was > 100 µM (inactive) and the GI50 [45] was > 100 µM (inactive). For the same compound, the GI50 [46] was > 100 µM (inactive), the GI50 [47] was > 100 µM (inactive) and the GI50 [48] was > 100 µM (inactive). For the same compound, the GI50 [49] was > 100 µM (inactive), the GI50 [50] was > 100 µM (inactive) and the GI50 [51] was > 100 µM (inactive). For the same compound, the GI50 [52] was > 100 µM (inactive), the GI50 [53] was > 100 µM (inactive) and the GI50 [54] was > 100 µM (inactive).
In the case of `CC1(C)C2CCC(CN)(C2)C1O` (stereo unspecified), the GI50 [2] is reported as > 100 µM (inactive), the GI50 [3] is reported as > 100 µM (inactive) and the GI50 [7] is reported as > 100 µM (inactive). The GI50 [8] was > 100 µM (inactive), the GI50 [9] was > 100 µM (inactive) and the GI50 [10] was > 100 µM (inactive). For the same compound, the GI50 [11] was 65.6 µM (inactive), the GI50 [14] was > 100 µM (inactive) and the GI50 [15] was > 100 µM (inactive). For the same compound, the GI50 [17] was > 100 µM (inactive), the GI50 [18] was > 100 µM (inactive) and the GI50 [19] was > 100 µM (inactive). The GI50 [20] was > 100 µM (inactive), the GI50 [21] was > 100 µM (inactive) and the GI50 [24] was > 100 µM (inactive). For the same compound, the GI50 [26] was > 100 µM (inactive), the GI50 [27] was > 100 µM (inactive) and the GI50 [30] was > 100 µM (inactive). For the same compound, the GI50 [31] was > 100 µM (inactive), the GI50 [32] was > 100 µM (inactive) and the GI50 [33] was > 100 µM (inactive). The GI50 [34] was > 100 µM (inactive), the GI50 [35] was > 100 µM (inactive) and the GI50 [36] was > 100 µM (inactive). For the same compound, the GI50 [37] was > 100 µM (inactive), the GI50 [38] was 80.2 µM (inactive) and the GI50 [41] was > 100 µM. The GI50 [42] was > 100 µM (inactive), the GI50 [43] was > 100 µM (inactive) and the GI50 [45] was > 100 µM (inactive). For the same compound, the GI50 [46] was > 100 µM (inactive), the GI50 [47] was > 100 µM (inactive) and the GI50 [49] was > 100 µM (inactive). For the same compound, the GI50 [53] was > 100 µM (inactive) and the GI50 [55] was > 100 µM (inactive).
`COc1cc(Br)c(CC2C3=C(CCN2C(=O)C2CCC2)CC2(CC3)OCCO2)cc1O` (stereo unspecified) was tested, and the GI50 [1] was > 100 µM (inactive), the GI50 [2] was 34.4 µM (inactive) and the GI50 [3] was 32.5 µM (inactive). The GI50 [4] was 35.3 µM (inactive), the GI50 [5] was 18.2 µM (inactive) and the GI50 [6] was 49.7 µM (inactive). For the same compound, the GI50 [7] was 68.4 µM (inactive), the GI50 [8] was 84.1 µM (inactive) and the GI50 [9] was > 100 µM (inactive). The GI50 [10] was 83.9 µM (inactive), the GI50 [11] was 23.6 µM (inactive) and the GI50 [12] was 33.8 µM (inactive). For the same compound, the GI50 [13] was 57.9 µM (inactive), the GI50 [14] was 50.2 µM (inactive) and the GI50 [56] was > 100 µM (inactive). For the same compound, the GI50 [16] was 24.2 µM (inactive), the GI50 [17] was 31.6 µM (inactive) and the GI50 [18] was 43.3 µM (inactive). For the same compound, the GI50 [20] was 98.4 µM (inactive), the GI50 [21] was 62.2 µM (inactive) and the GI50 [57] was 62.5 µM (inactive). For the same compound, the GI50 [22] was > 100 µM (inactive), the GI50 [58] was 29.9 µM (inactive) and the GI50 [23] was 65 µM (inactive). The GI50 [24] was 87.1 µM (inactive), the GI50 [25] was 89.9 µM (inactive) and the GI50 [26] was 46.7 µM (inactive). The GI50 [27] was 17.2 µM (inactive), the GI50 [28] was > 100 µM (inactive) and the GI50 [29] was 28.6 µM (inactive). For the same compound, the GI50 [30] was 36.6 µM (inactive), the GI50 [31] was 50.6 µM (inactive) and the GI50 [59] was 68.2 µM (inactive). The GI50 [32] was 93.5 µM (inactive), the GI50 [33] was 29.2 µM (inactive) and the GI50 [34] was > 100 µM (inactive). The GI50 [35] was 28.8 µM (inactive), the GI50 [36] was > 100 µM (inactive) and the GI50 [37] was 80.2 µM (inactive). For the same compound, the GI50 [38] was 26.5 µM (inactive), the GI50 [39] was 58.7 µM (inactive) and the GI50 [40] was > 100 µM (inactive). The GI50 [41] was 27.9 µM, the GI50 [42] was 28.8 µM (inactive) and the GI50 [43] was 52.6 µM (inactive). For the same compound, the GI50 [44] was 4.84 µM (inactive), the GI50 [45] was 34.4 µM (inactive) and the GI50 [46] was 34.2 µM (inactive). For the same compound, the GI50 [47] was 28.1 µM (inactive), the GI50 [48] was 33.5 µM (inactive) and the GI50 [49] was > 100 µM (inactive). For the same compound, the GI50 [50] was 72.8 µM (inactive), the GI50 [51] was 46.6 µM (inactive) and the GI50 [52] was > 100 µM (inactive). The GI50 [53] was 56.4 µM (inactive), the GI50 [55] was 53.8 µM (inactive) and the GI50 [54] was 27.7 µM (inactive).
